Source: ChEMBL document CHEMBL5113486, “Hit-to-lead optimization of novel phenyl imidazole carboxamides that are active against Leishmania donovani” (Eur J Med Chem, 2022)
≈ marks a conversion by molar mass, not a printed value.

Experiments:
[1] = tested on: Leishmania donovani; experiment: Antileishmanial activity against Leishmania donovani axenic amastigotes assessed as growth inhibition by fluorescence intensity readout assay; assay type: functional, organism-based
[2] = Metabolic stability in mouse liver microsomes assessed as half life; assay type: ADME, Microsome
[3] = Kinetic solubility of the compound at pH 2.0 by nephelometry; assay type: physicochemical; settings: buffer, read-out: Kinetic_solubility
[4] = Cytotoxicity against human HepG2 cells assessed as cell growth inhibition; assay type: toxicity, cell-based
[5] = Cytotoxicity against human THP-1 cells assessed as cell growth inhibition; assay type: toxicity, cell-based
[6] = Cytotoxicity against human HepG2 cells assessed as cell growth inhibition at 100 uM; assay type: toxicity, cell-based; settings: read-out: Activity
[7] = Metabolic stability in human liver microsomes assessed as intrinsic clearance measured per mg protein; assay type: ADME, Microsome; settings: read-out: CLH
[8] = Kinetic solubility of the compound at pH 6.5 by nephelometry; assay type: physicochemical; settings: buffer, read-out: Kinetic_solubility
[9] = Lipophilicity, log P of the compound; assay type: physicochemical; settings: octanol/water
[10] = Metabolic stability in mouse liver microsomes assessed as intrinsic clearance measured per mg protein; assay type: ADME, Microsome; settings: read-out: CLH
[11] = Metabolic stability in human liver microsomes assessed as half-life; assay type: ADME, Microsome
[12] = Selectivity index, ratio of CC50 for cytotoxicity against human THP-1 cells to IC50 for antileishmanial activity against Leishmania donovani infected in human THP-1 cells; assay type: toxicity, cell-based; settings: read-out: Ratio CC50/IC50
[13] = tested on: Leishmania donovani; experiment: Antileishmanial activity against Leishmania donovani infected in human THP-1 cells assessed as growth inhibition by intramacrophage assay; assay type: functional, organism-based
[14] = tested on: Leishmania donovani; experiment: Antileishmanial activity against Leishmania donovani infected in human THP-1 cells assessed as growth inhibition at 100 uM by intramacrophage assay; assay type: functional; parameters: scale not given: the % may be the effect or the level left
[15] = Solubility of the compound in DMSO; assay type: physicochemical
[16] = tested on: HepG2; experiment: Cytotoxicity against human HepG2 cells assessed as inhibition of cell growth under galactose containing medium by crabtree effect assay; assay type: toxicity, cell-based
[17] = Drug degradation in human liver microsomes; assay type: ADME, Microsome; settings: read-out: Drug degradation
[18] = tested on: HepG2; experiment: Mitotoxicity in human HepG2 cells assessed as reduction in metabolic activity under galactose containing medium by crabtree effect assay; assay type: toxicity, cell-based
[19] = tested on: HepG2; experiment: Mitotoxicity in human HepG2 cells assessed as reduction in metabolic activity under glucose containing medium by crabtree effect assay; assay type: toxicity, cell-based
[20] = (§1) Cytotoxicity against human HepG2 cells assessed as inhibition of cell growth under glucose containing medium by crabtree effect assay; assay type: toxicity, cell-based; settings: HepG2 cells
[21] = Metabolic stability in mouse liver microsomes assessed as intrinsic clearance measured per mg protein at 2 to 5 mins; assay type: ADME, Microsome; settings: time 2-5 min, read-out: CLH
[22] = Metabolic stability in mouse liver microsomes assessed as half life measured at 2 to 5 mins; assay type: ADME, Microsome; settings: time 2-5 min
[23] = Solubility of the compound upto 800 uM; assay type: physicochemical
[24] = Stability in mouse liver microsomes assessed as parent compound remaining measured at 2 mins; assay type: ADME, Microsome
[25] = tested on: HepG2; experiment: as §1; assay type: toxicity, cell-based; settings: hepg2

| SMILES | CC50 [5] | inhibition at 100 µM [6] | selectivity ratio [12] | IC50 [13] | Activity [14] | also measured |
| --- | --- | --- | --- | --- | --- | --- |
| COc1ccc(-c2cnc(NC(=O)c3ccc(F)cc3)n2C)cc1 | ≥ 50 µM | < 50% | > 8.3 | – | – | IC50 [1]: 3.2 µM; half-life [2]: 4 min; solubility kinetic [3]: 12.5 µg/mL (≈ 38.4 µM); CC50 [4]: 100 µM; microsomal CLint [7]: 30 µL/min/mg; solubility kinetic [8]: < 1.6 µg/mL; logP [9]: 3.6; microsomal CLint [10]: 396 µL/min/mg; half-life [11]: 59 min |
| COc1ccc(-c2cnc(NC(=O)c3cc(-c4ccccn4)n[nH]3)n2C)cc1 | ≥ 50 µM | < 50% | > 19 | – | – | IC50 [1]: 4 µM; CC50 [4]: 100 µM; logP [9]: 3.2 |
| COc1ccc(-c2cnc(NC(=O)C3CCNCC3)n2C)cc1 | > 100 µM | < 50% | > 1 | > 100 µM | <50% | – |
| COc1ccc(-c2cnc(NC(=O)C3CCCCC3)n2C)cc1 | > 100 µM | < 50% | > 1 | > 100 µM | <50% | solubility [15]: Insoluble |
| COc1ccc2c(c1)nc(NC(=O)c1ccc(F)cc1)n2C | > 100 µM | < 50% | > 2.6 | 38 µM | – | – |
| COc1ccc(-c2cnc(NC(=O)c3cccc(F)c3)n2C)cc1 | > 100 µM | < 50% | – | > 100 µM | <50% | – |
| Cn1c(-c2ccccc2)cnc1NC(=O)C1CCCCC1 | > 100 µM | < 50% | > 2.2 | 46 µM | – | – |
| Cn1c(-c2cccc(Cl)c2)cnc1NC(=O)c1ncc[nH]1 | 55 µM | – | 74 | 0.74 µM | – | half-life [2]: 82 min; solubility kinetic [3]: 12.5 µg/mL (≈ 41.4 µM); Activity [16]: Non-Toxic; metabolised [17]: < 15%; Activity [18]: Non-Toxic; microsomal CLint [7]: 8 µL/min/mg; solubility kinetic [8]: 3.1 µg/mL (≈ 10.3 µM); microsomal CLint [10]: 21 µL/min/mg; half-life [11]: 229 min; Activity [19]: Non-Toxic; CC50 [20]: 17 µM |
| Cc1cccc(-c2cnc(NC(=O)c3ccc(F)cc3)n2C)c1 | > 100 µM | < 50% | > 1.3 | 79 µM | – | – |
| COc1ccc(-c2cnc(NC(=O)c3ccn[nH]3)n2C)cc1 | > 100 µM | < 50% | > 1 | > 100 µM | <50% | – |
| CCn1c(-c2ccc(OC)cc2)cnc1NC(=O)c1ccc(F)cc1 | > 100 µM | < 50% | > 2.6 | > 100 µM | – | – |
| COc1ccc(-c2cnc(NC(=O)c3ccccc3)n2C)cc1 | > 100 µM | < 50% | > 3.6 | 28 µM | – | solubility [15]: Insoluble |
| Cc1ccccc1C(=O)Nc1ncc(-c2ccccc2)n1C | > 100 µM | < 50% | > 1.8 | 57 µM | – | – |
| O=C(Nc1ncc(-c2ccccc2)o1)c1ccc(F)cc1 | 17 µM | – | 15 | 1.1 µM | – | solubility kinetic [3]: 25 µg/mL (≈ 88.6 µM); microsomal CLint [21]: 352 µL/min/mg; microsomal CLint [7]: 90 µL/min/mg; solubility kinetic [8]: 6.3 µg/mL (≈ 22.3 µM); half-life [22]: 5 min; half-life [11]: 19 min |
| COc1ccc(-c2cnc3nc(-c4ccc(F)cc4)[nH]c3c2)cc1 | > 100 µM | < 50% | > 1 | > 100 µM | <50% | solubility [23]: Insoluble |
| COc1ccc(-c2cnc(NC(=O)c3ccc([N+](=O)[O-])cc3)n2C)cc1 | > 100 µM | < 50% | > 1 | > 100 µM | <50% | – |
| Cn1c(-c2ccccc2)cnc1NC(=O)c1ncc[nH]1 | > 100 µM | < 50% | > 16 | 6.4 µM | – | half-life [2]: < 2 min; Stability [24]: Unstable; microsomal CLint [7]: 20 µL/min/mg; microsomal CLint [10]: > 866 µL/min/mg; half-life [11]: 88 min |
| COc1ccc(-c2cnc(NC(=O)c3ccc(F)cc3)n2Cc2ccccc2)cc1 | > 100 µM | < 50% | 1.4 | > 100 µM | – | – |
| COc1ccc2nc(NC(=O)c3ccc(F)cc3)n(C)c2c1 | > 100 µM | < 50% | > 2.3 | 44 µM | – | – |
| Cn1c(-c2ccccc2F)cnc1NC(=O)c1ccc(F)cc1 | > 100 µM | < 50% | > 1 | > 100 µM | <50% | – |

| SMILES | CC50 [5] | inhibition at 100 µM [6] | selectivity ratio [12] | IC50 [13] | Activity [14] | also measured |
| --- | --- | --- | --- | --- | --- | --- |
| COc1ccc(-c2cnc(NC(=O)c3ccc(F)cc3)n2C2CCCC2)cc1 | > 100 µM | < 50% | > 1 | 35 µM | – | – |
| COc1ccc(-c2cnc(NC(=O)c3ccc(C#N)cc3)n2C)cc1 | > 100 µM | < 50% | > 1 | > 100 µM | <50% | – |
| COc1ccc(-c2cnc(NC(=O)c3ccc(F)cc3)[nH]2)cc1 | > 100 µM | < 50% | > 8.3 | 38 µM | – | – |
| Cn1c(-c2ccccc2)cnc1NC(=O)c1ccc(F)cc1 | > 100 µM | < 50% | > 2.8 | 36 µM | – | solubility kinetic [3]: 25 µg/mL (≈ 84.7 µM); solubility kinetic [8]: 25 µg/mL (≈ 84.7 µM) |
| Cn1c(-c2ccc(F)cc2)cnc1NC(=O)c1ccc(F)cc1 | > 100 µM | < 50% | > 1 | > 100 µM | <50% | – |
| COc1ccc(-c2nc3ncc(-c4ccc(F)cc4)cc3[nH]2)cc1 | > 100 µM | < 50% | > 1 | > 100 µM | <50% | solubility [23]: Insoluble |
| Cn1c(-c2ccc(Cl)cc2)cnc1NC(=O)c1ncc[nH]1 | 52 µM | – | 100 | 0.52 µM | – | half-life [2]: 43 min; solubility kinetic [3]: 50 µg/mL (≈ 166 µM); Activity [16]: Non-Toxic; metabolised [17]: < 15%; Activity [18]: Non-Toxic; microsomal CLint [7]: < 7 µL/min/mg; solubility kinetic [8]: 25 µg/mL (≈ 82.9 µM); microsomal CLint [10]: 41 µL/min/mg; half-life [11]: > 255 min; Activity [19]: Non-Toxic; Activity [25]: Non-Toxic |
| COc1ccc(-c2cnc(NC(=O)c3ncc[nH]3)n2C)cc1 | > 100 µM | < 50% | > 9.1 | 11 µM | <50% | half-life [2]: 3 min; solubility kinetic [3]: > 100 µg/mL; metabolised [17]: < 15%; microsomal CLint [7]: < 7 µL/min/mg; solubility kinetic [8]: 6.3 µg/mL (≈ 21.2 µM); microsomal CLint [10]: 511 µL/min/mg; half-life [11]: > 255 min |
| COc1ccc(-c2cnc(NC(=O)c3cccc(C#N)c3)n2C)cc1 | > 100 µM | < 50% | > 1 | > 100 µM | <50% | – |
| COc1ccc(-c2cnc(NC(=O)c3ccccc3O)n2C)cc1 | > 100 µM | < 50% | > 1 | > 100 µM | – | – |
| COc1ccc(-c2cnc(NC(=O)c3cccc(C)c3)n2C)cc1 | > 100 µM | < 50% | > 1 | > 100 µM | – | solubility [15]: Insoluble |
| COc1ccc(-c2cnc(NC(C)=O)n2C)cc1 | > 100 µM | < 50% | > 1 | > 100 µM | <50% | – |
| CCCCn1c(-c2ccc(OC)cc2)cnc1NC(=O)c1ccc(F)cc1 | > 100 µM | < 50% | > 5.6 | > 100 µM | <50% | – |
| COc1cccc(-c2cnc(NC(=O)c3ncc[nH]3)n2C)c1 | > 100 µM | < 50% | > 12 | 8.1 µM | – | – |
| COc1ccc(-c2noc(NC(=O)c3ccc(F)cc3)c2C)cc1 | > 100 µM | < 50% | > 1 | > 100 µM | <50% | – |
| COc1ccc(-c2ccc(NC(=O)c3ccc(F)cc3)nc2)cc1 | > 100 µM | < 50% | > 1 | > 100 µM | <50% | solubility [15]: Insoluble |
| CCCC(=O)Nc1ncc(-c2ccc(OC)cc2)n1C | > 100 µM | < 50% | > 1 | > 100 µM | <50% | – |
| COc1ccc(-c2cnc(NC(=O)c3cnco3)n2C)cc1 | > 100 µM | < 50% | > 1 | > 100 µM | <50% | – |
| COc1ccc(-c2cnc(NC(=O)c3ccccc3F)n2C)cc1 | > 100 µM | < 50% | > 1 | > 100 µM | <50% | – |
| COc1ccc(-c2cnc(NC(=O)c3cnc[nH]3)n2C)cc1 | > 100 µM | < 50% | > 1 | > 100 µM | <50% | – |
